Assay results: patent US11136347B2, “Crystalline forms of a fatty acid bile acid conjugate, preparation method thereof and use thereof” (Crystal Pharmaceutical (Suzhou) Co., Ltd., priority 2017, dated 2021)

Columns and labels:
Type in all cases: physicochemical
[1] = Stability study: storage in open dishes, crystalline form checked by XRPD; conditions: for Form change: XRPD
Procedure: Solid samples of Form CS3 were stored under different conditions of 25° C./60% RH and 40° C./75% RH in open dishes for one year. Crystalline form was checked by XRPD.
Form CS8 were stored in open dishes under 25° C./60% RH, 40° C./75% RH and 60° C./75% RH conditions for three weeks, and sampled for XRPD test.

[2] = Hygroscopicity study by dynamic vapor sorption (DVS); conditions: for Weight gain under 80% Relative Humidity: DVS; for Weight gain under 80% Relative Humidity / The definition of hygroscopicity: 80% RH; for The definition of hygroscopicity: Chinese Pharmacopoeia 2015 edition, 25° C. +/−1° C.
Procedure: Dynamic vapor sorption (DVS) was applied to test hygroscopicity of Form CS3 and the solid disclosed in CN100386339C with about 15 mg of samples. […] DVS plot of test hygroscopicity of Form CS3 is depicted in FIG. 1G. What's more, the crystalline form of Form CS3 didn't change after DVS test, which is depicted in FIG. 1H.
(§1) Dynamic vapor sorption (DVS) was applied to test hygroscopicity of Form CS2 with about 10 mg of samples. […] As depicted in FIG. 1I, weight gain of the solid disclosed in prior art under 80% RH is 2.44%. The hygroscopicity of Form CS2 is lower than that of prior art.
Dynamic vapor sorption (DVS) was applied to test hygroscopicity of Form CS5 with about 8 mg of samples. […] As depicted in FIG. 1I, weight gain of the solid disclosed in prior art under 80% RH is 2.44%. The hygroscopicity of Form CS5 is lower than that of prior art.
as §1, with “CS8” for “CS2”, “7” for “10”, “sample.” for “samples.”, “art. […] The XRPD patterns before and after DVS were shown in FIG. 4F, top: the XRPD pattern before DVS; bottom: XRPD pattern after DVS.” for “art.”

[3] = Particle size distribution (Microtrac S3500 laser particle size analyzer, wet mode); conditions: after ultrasonication for 30 seconds, dispersion medium Isopar G
Procedure: The particle size distribution data in the present disclosure were acquired by an S3500 laser particle size analyzer of Microtrac. Microtrac S3500 is equipped with an SDC (Sample Delivery Controller). The test was carried out in wet mode, and the dispersion medium is Isopar G. The parameters are as follows:
(§2) The particle size distribution of Form CS3 and the solid disclosed in CN100386339C were tested after ultrasonication for 30 seconds. The average particle size of Form CS3 is 26.3 μm, and D90 is 62.8 μm. The average particle size and D90 of the solid disclosed in prior art are 452.5 μm and 870.3 μm. Compared with prior art, Form CS3 has smaller particle size, which increases the specific surface area of the drug substance, improves the dissolution rate of drug, thereby facilitating drug absorption and further improving the bioavailability of the drug.
as §2, with “Form CS2” for “Form CS3”, “seconds. An” for “seconds. The”, “is 41.9” for “is 26.3”, “is 87.5 μm, while the” for “is 62.8 μm. The”

[4] = listed as solid disclosed in prior art

Structure (SMILES) | Weight gain under 80% Relative Humidity [2] | Form change before and after DVS test (XRPD) [2] | Time for which the crystalline form doesn't change (stable) ([1]; 25° C./60% RH) | Time for which the crystalline form doesn't change (stable) ([1]; 40° C./75% RH) | Time for which the crystalline form doesn't change (stable) ([1]; 60° C./75% RH) | D10 [3] | D50 [3] | D90 [3] | MV (average particle diameter calculated by volume) [3] | The definition of hygroscopicity [2] | also measured
CCCCCCCCCCCCCCCCCCCC(=O)N[C@H]1CC[C@@]2(C)[C@@H](C1)C[C@@H](O)[C@@H]1[C@@H]2C[C@H](O)[C@]2(C)[C@@H]([C@H](C)CCC(=O)O)CC[C@@H]12 [Form CS8, 3β-arachidylamido-7α,12α-dihydroxy-5β-cholan-24-oic acid] | 0.40% | No form change |  |  |  |  |  |  |  |  | Form change ([1]; 25° C./60% RH, three weeks): no form change; Form change ([1]; 40° C./75% RH, three weeks): no form change; Form change ([1]; 60° C./75% RH, three weeks): no form change
CCCCCCCCCCCCCCCCCCCC(=O)N[C@H]1CC[C@@]2(C)[C@@H](C1)C[C@@H](O)[C@@H]1[C@@H]2C[C@H](O)[C@]2(C)[C@@H]([C@H](C)CCC(=O)O)CC[C@@H]12 [Form CS2, 3β-arachidylamido-7α,12α-dihydroxy-5β-cholan-24-oic acid] | 0.46% | No form change | at least 3 weeks | at least 3 weeks | at least 3 weeks | 9.7 μm | 27.9 μm | 87.5 μm | 41.9 μm | slightly hygroscopic (Increase in mass is less than 2 percent and equal to or greater than 0.2 percent) | 
CCCCCCCCCCCCCCCCCCCC(=O)N[C@H]1CC[C@@]2(C)[C@@H](C1)C[C@@H](O)[C@@H]1[C@@H]2C[C@H](O)[C@]2(C)[C@@H]([C@H](C)CCC(=O)O)CC[C@@H]12 [Form CS3, 3β-arachidylamido-7α,12α-dihydroxy-5β-cholan-24-oic acid] | 0.15% | didn't change | at least 3 weeks | at least 3 weeks | at least 3 weeks | 2.0 μm | 12.3 μm | 62.8 μm | 26.3 μm |  | Form change ([1]; 25° C./60% RH, one year): No form change; Form change ([1]; 40° C./75% RH, one year): No form change

Continued, in another order:

Weight gain under 80% Relative Humidity [2] | Form change before and after DVS test (XRPD) [2] | Time for which the crystalline form doesn't change (stable) ([1]; 25° C./60% RH) | Time for which the crystalline form doesn't change (stable) ([1]; 40° C./75% RH) | Time for which the crystalline form doesn't change (stable) ([1]; 60° C./75% RH) | D10 [3] | D50 [3] | D90 [3] | MV (average particle diameter calculated by volume) [3] | Structure (SMILES) | The definition of hygroscopicity [2] | also measured
2.44% |  |  |  |  | 95.0 μm | 398.8 μm | 870.3 μm | 452.5 μm | CCCCCCCCCCCCCCCCCCCC(=O)N[C@H]1CC[C@@]2(C)[C@@H](C1)C[C@@H](O)[C@@H]1[C@@H]2C[C@H](O)[C@]2(C)[C@@H]([C@H](C)CCC(=O)O)CC[C@@H]12 [Solid disclosed in CN100386339C, 3β-arachidylamido-7α,12α-dihydroxy-5β-cholan-24-oic acid, reference compound] |  | The definition of hygroscopicity [2, 4]: hygroscopic (Increase in mass is less than 15 percent and equal to or greater than 2 percent); Weight gain under 80% Relative Humidity ([2]; listed as amorphous solid): 2.44%; Weight gain under 80% Relative Humidity [2, 4]: 2.44%; Weight gain under 80% Relative Humidity ([2]; listed as solid of prior art): 2.44%; D90 ([3]; listed as prior art): 870.3 μm; MV (average particle diameter calculated by volume) ([3]; listed as prior art): 452.5 μm; D90 [3, 4]: 870.3 μm; MV (average particle diameter calculated by volume) [3, 4]: 452.5 μm
0.35% | No form change | at least 3 weeks | at least 3 weeks | at least 3 weeks |  |  |  | 75.6 μm | CCCCCCCCCCCCCCCCCCCC(=O)N[C@H]1CC[C@@]2(C)[C@@H](C1)C[C@@H](O)[C@@H]1[C@@H]2C[C@H](O)[C@]2(C)[C@@H]([C@H](C)CCC(=O)O)CC[C@@H]12 [Form CS5, 3β-arachidylamido-7α,12α-dihydroxy-5β-cholan-24-oic acid] | slightly hygroscopic (Increase in mass is less than 2 percent and equal to or greater than 0.2 percent) | 
